The values below come from US9637469B2, “Pyridine derivative” (Teijin Pharma Limited, priority 2012, dated 2017).

For orientation: IC50 means the concentration that inhibits the measured activity by half.

The target of the assay is T1, human URAT1 (Homo sapiens, UniProt Q96S37).
T1 construct: Full-length cDNA of human URAT1 (hURAT1)
T1 sequence (Q96S37 1-553): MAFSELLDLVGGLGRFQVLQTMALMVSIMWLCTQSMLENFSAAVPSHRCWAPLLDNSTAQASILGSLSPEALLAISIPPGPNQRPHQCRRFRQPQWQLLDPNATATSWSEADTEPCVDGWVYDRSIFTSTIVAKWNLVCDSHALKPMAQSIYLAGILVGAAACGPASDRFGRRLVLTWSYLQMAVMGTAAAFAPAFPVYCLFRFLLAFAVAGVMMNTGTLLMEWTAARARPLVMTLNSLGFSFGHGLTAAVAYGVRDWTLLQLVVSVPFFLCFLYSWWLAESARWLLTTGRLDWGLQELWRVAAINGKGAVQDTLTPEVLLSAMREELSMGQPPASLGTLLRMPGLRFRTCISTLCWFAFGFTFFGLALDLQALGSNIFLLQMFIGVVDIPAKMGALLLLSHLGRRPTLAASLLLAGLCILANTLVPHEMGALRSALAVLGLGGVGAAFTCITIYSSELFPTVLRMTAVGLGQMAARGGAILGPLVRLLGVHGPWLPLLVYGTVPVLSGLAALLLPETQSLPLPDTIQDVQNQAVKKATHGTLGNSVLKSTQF
Kind of assay: Test for inhibition of uric acid transport using human URAT1-expressing cells.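 On all read-outs here: three stars up to 0.2 µM two stars 0.2-2 µM one star 2-20 µM.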 In kind it is cell-based. As to conditions: HEK 293 cells expressing human URAT1, 14C-labeled uric acid 25 μM, uptake 37° C. for 5 min; for IC50: read-out: Inhibitory Activity (IC50 of uric acid transport inhibition). As for the experimental part:
(1) Preparation of the Test Compound
The test compound was dissolved in DMSO (produced by Sigma) to a concentration of 20 mM and was subsequently used by diluting to desired concentrations.
(2) Test for Inhibition of Uric Acid Transport Using Human URAT1-Expressing Cells;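 further: three stars up to 0.2 µM two stars 0.2-2 µM one star 2-20 µM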
Full-length cDNA of human URAT1 (hURAT1) (produced by OriGene Technologies, Inc., NCBI Reference Sequence: NM 144585) was subcloned into an expression vector, pCMV6-Kan/Neo (produced by OriGene Technologies, Inc.), and hURAT1 gene was transfected into human embryonic kidney-derived cells (HEK 293 cells) by liposome method using Lipofectamine 2000 (produced by Invitrogen Corporation), whereupon HEK 293 cells expressing human URAT1 gene were screened by its Geneticin resistance. By a method similar to the following method, functional expression of human URAT1 gene was confirmed by using transport of ^14C-labeled uric acid into the cells as an index.
The HEK 293 cells expressing human URAT1 were seeded in a 24-well cell culture dish to a density of 3×10^5 cells/mL/well and were cultured in Dulbecco's modified Eagle's medium (D-MEM medium) containing 10% fetal bovine serum at 37° C. for 2 days. Thereafter, the following test for inhibition of uric acid transport was performed.
After the medium was removed by aspiration from each well, the medium was replaced with a solution obtained by substituting NaCl in Hank's Balanced Salt Solution (HBSS) with Na gluconate (hereinafter, HBSS/Na-gluconate) and the cells were preincubated at 37° C. for about 10 minutes. HBSS/Na-gluconate was removed by aspiration and a ^14C-uric acid solution that was warmed at 37° C. in advance containing various concentrations of the Example compound described in (1) and a radioactive ligand (^14C-labeled uric acid; final concentration 25 μM) was added and an uptake reaction was carried out by incubating at 37° C. for 5 min. After the incubation, ^14C-labeled uric acid solution was removed by aspiration and the cells were washed three times with ice-cold HBSS. The HEK 293 cells expressing human URAT1 were lysed in 0.2 mol/L aqueous NaOH (hereafter, the cell sample) and the cell samples were collected. The cell sample and a liquid scintillation liquid, ULTIMA GOLD (produced by PerkinElmer, Inc.) were mixed and the radioactivity was measured by a liquid scintillation counter (Beckman Coulter, Inc.).
The uric acid transport rate of the Example compound at each concentration (% of control uptake) was calculated relative to the radioactivity (radioactivity in human URAT1 expressing HEK 293 cells without addition of the Example compound (DMSO addition)) showing URAT1-specific uric acid transport as 100%, and the concentration (IC50) of the Example compound at which the uric acid transport rate is inhibited by 50% was determined. In addition, the symbols (*, **, and ***) in the table represent the following inhibitory activity values: • IC50≦_ 0.2 μM: *** • 0.2 μM<IC50≦2 μM: ** • 2 μM<IC50≦20 μM: *

In the case of `CC(C)c1nc(-c2cncc(Cl)c2)n(Cc2cccc3ccsc23)c1C(=O)O` [Compound A235, 1-(benzo[b]thiophen-7-ylmethyl)-2-(5-chloropyridin-3-yl)-4-isopropyl-1H-imidazole-5-carboxylic acid], the “Inhibitory Activity (IC50 of uric acid transport inhibition)” value (“Inhibitory Activity” for short) is listed as “* * *”.
The same measure, in the same setting: the same measure for `O=C(O)c1c(C2CC2)nc(-c2cncc(Cl)c2)n1Cc1cccc2ccccc12` [Compound A145, 2-(5-chloropyridin-3-yl)-4-cyclopropyl-1-(naphthalen-1-ylmethyl)-1H-imidazole-5-carboxylic acid]: “* * *”.
`Cc1nc(-c2cncc(-c3ccccc3)c2)n(Cc2cc(Cl)ccc2Cl)c1C(=O)O` [Compound A176, 1-(2,5-dichlorobenzyl)-4-methyl-2-(5-phenylpyridin-3-yl)-1H-imidazole-5-carboxylic acid]: the “Inhibitory Activity” value was “* * *”.
Same read-out and setting: for `O=C(O)c1c(-c2cccnc2)nc(-c2cccnc2)n1Cc1cc(Cl)ccc1Cl` [Compound A94, 1-(2,5-dichlorobenzyl)-2,4-di(pyridin-3-yl)-1H-imidazole-5-carboxylic acid] the value was “* *”; for `O=C(O)c1c(C(F)(F)F)nc(-c2cccnc2)n1Cc1csc2cccc(Cl)c12` [Compound A27, 1-((4-chlorobenzo[b]thiophen-3-yl)methyl)-2-(pyridin-3-yl)-4-(trifluoromethyl)-1H-imidazole-5-carboxylic acid], “* *”; for `CC(C)c1nc(-c2cccnc2)n(Cc2csc3cccc(Br)c23)c1C(=O)O` [Compound A38, 1-((4-bromobenzo[b]thiophen-3-yl)methyl)-4-isopropyl-2-(pyridin-3-yl)-1H-imidazole-5-carboxylic acid], “* * *”.
On the same count and under the same terms, for `CCOc1cncc(-c2nc(C)c(C(=O)O)n2Cc2cc(Cl)ccc2Cl)c1` [Compound A174, 1-(2,5-dichlorobenzyl)-2-(5-ethoxypyridin-3-yl)-4-methyl-1H-imidazole-5-carboxylic acid] the value was “* * *”.
Same read-out and setting: the same measure for `O=C(O)c1c(C(F)(F)F)nc(-c2cccnc2)n1Cc1csc2ccccc12` [Compound A22, 1-(benzo[b]thiophen-3-ylmethyl)-2-(pyridin-3-yl)-4-(trifluoromethyl)-1H-imidazole-5-carboxylic acid]: “* *”; for `Cc1cncc(-c2nc(C)c(C(=O)O)n2Cc2cc(C)ccc2Cl)c1` [Compound A231, 1-(2-chloro-5-methylbenzyl)-4-methyl-2-(5-methylpyridin-3-yl)-1H-imidazole-5-carboxylic acid]: “* * *”.
Regarding `Cc1nc(-c2cncc(OC(C)C)c2)n(Cc2cc(Cl)ccc2Cl)c1C(=O)O` [Compound A175, 1-(2,5-dichlorobenzyl)-2-(5-isopropoxypyridin-3-yl)-4-methyl-1H-imidazole-5-carboxylic acid], the “Inhibitory Activity” value was “* *”.
For the molecule `Cc1nc(-c2cccnc2)n(Cc2ccc(F)cc2)c1C(=O)O` [Compound A50], the IC50 is 2 to 20 µM.
Turning to `COc1ncccc1-c1nc(C)c(C(=O)O)n1Cc1cc(Cl)ccc1Cl` [Compound A162, 1-(2,5-dichlorobenzyl)-2-(2-methoxypyridin-3-yl)-4-methyl-1H-imidazole-5-carboxylic acid], the “Inhibitory Activity” value is “* *”.
The same measure, in the same setting: for `Cc1ccc(C)c(Cn2c(-c3cncc(F)c3)nc(C)c2C(=O)O)c1` [Compound A178, 1-(2,5-dimethylbenzyl)-2-(5-fluoropyridin-3-yl)-4-methyl-1H-imidazole-5-carboxylic acid] the value was “* *”; for `Cc1cncc(-c2nc(C)c(C(=O)O)n2Cc2sc(Cl)cc2Cl)c1` [Compound A230, 1-((2,4-dichlorothiophen-5-yl)methyl)-4-methyl-2-(5-methylpyridin-3-yl)-1H-imidazole-5-carboxylic acid], “* *”; for `Cc1ccc(Cn2c(-c3cccnc3)nc(C3CC3)c2C(=O)O)c2ccccc12` [Compound A18, 4-cyclopropyl-1-((4-methylnaphthalen-1-yl)methyl)-2-(pyridin-3-yl)-1H-imidazole-5-carboxylic acid], “* * *”.
Consider `O=C(O)c1ccc(-c2cccnc2)n1Cc1csc2ccccc12` [Compound B8, 1-(benzo[b]thiophen-3-ylmethyl)-2-(pyridin-3-yl)-1H-pyrrole-5-carboxylic acid], for which the “Inhibitory Activity” value is “* * *”.
For `Cc1nc(-c2cncc(F)c2)n(Cc2sc(Cl)cc2Cl)c1C(=O)O` [Compound A228, 1-((2,4-dichlorothiophen-5-yl)methyl)-2-(5-fluoropyridin-3-yl)-4-methyl-1H-imidazole-5-carboxylic acid], the “Inhibitory Activity” value was “* *”.
Same read-out and setting: the same measure for `Cc1nc(-c2cncc(F)c2)n(Cc2cccc3ccsc23)c1C(=O)O` [Compound A234, 1-(benzo[b]thiophen-7-ylmethyl)-2-(5-fluoropyridin-3-yl)-4-methyl-1H-imidazole-5-carboxylic acid]: “* *”; for `Cc1nc(-c2cccnc2)n(Cc2cc(Cl)ccc2F)c1C(=O)O` [Compound A42, 1-(5-chloro-2-fluorobenzyl)-4-methyl-2-(pyridin-3-yl)-1H-imidazole-5-carboxylic acid]: “* *”.
`Cc1cncc(-c2nc(C)c(C(=O)O)n2Cc2cccc3ccccc23)c1` [Compound A124]: the IC50 lay within 2 to 20 µM.
Regarding `Cc1nc(-c2cccnc2)n(Cc2ccc(Cl)cc2)c1C(=O)O` [Compound A53], the IC50 was in the range of 2 to 20 µM.
On to `Cc1nc(-c2cncc(C(F)(F)F)c2)n(Cc2cccc3ccccc23)c1C(=O)O` [Compound A138, 4-methyl-1-(naphthalen-1-ylmethyl)-2-(5-(trifluoromethyl)pyridin-3-yl)-1H-imidazole-5-carboxylic acid], for which the “Inhibitory Activity” value was “* *”.
In the case of `Cc1nc(-c2cccnc2)n(Cc2csc3cccc(C)c23)c1C(=O)O` [Compound A5], the concentration for half-maximal inhibition (IC50) was 2 to 20 µM.
In the case of `Cc1nc(-c2cccnc2)n(Cc2cc(Cl)cc(Cl)c2)c1C(=O)O` [Compound A71, 1-(3,5-dichlorobenzyl)-4-methyl-2-(pyridin-3-yl)-1H-imidazole-5-carboxylic acid], the “Inhibitory Activity” value is listed as “* * *”.
For `CS(=O)(=O)NC(=O)c1ccc(-c2cncc(F)c2)n1Cc1cc(Cl)ccc1Cl` [Compound B26, 1-(2,5-dichlorobenzyl)-2-(5-fluoropyridin-3-yl)-N-(methylsulfonyl)-1H-pyrrole-5-carboxamide], the “Inhibitory Activity” value is “* * *”.
`O=C(O)/C=C/c1ccc(-c2cccnc2)n1Cc1cccc2ccccc12` [Compound B33, (E)-3-(1-(naphthalen-1-ylmethyl)-2-(pyridin-3-yl)-1H-pyrrole-5-yl)acrylic acid]: the “Inhibitory Activity” value is given as “* * *”.
